Measurements taken from patent US10709706B2, “Nuclear transport modulators and uses thereof” (Karyopharm Therapeutics Inc., priority 2015, dated 2020).

Experiments:
Format in all cases: cell-based
MM1S cells = assay: MTT cell proliferation assay, MM1S cells; details: Homo sapiens, MM1.S, MM1S multiple myeloma cells, approximately 64-72 hours, 1 nM to 30 μM
Protocol: (§1) The MTT cell proliferation assay was used to study the cytotoxic properties of the compounds. The assay was performed according to the method described by Roche Molecular Biochemicals, with minor modifications. The assay is based on the cleavage of the tetrazolium salt, MTT, in the presence of an electron-coupling reagent. The water-insoluble formazan salt produced must be solubilized in an additional step. Cells grown in a 96-well tissue culture plate were incubated with the MTT solution for approximately 4 hours. After this incubation period, a water-insoluble formazan dye formed. After solubilization, the formazan dye was quantitated using a scanning multi-well spectrophotometer (ELISA reader). […] The cells were seeded at 5,000-10,000 cells in each well of 96-well plate in 100 μL of fresh culture medium and were allowed to attach overnight. The stock solutions of the compounds were diluted in 100 μL cell culture medium to obtain eight concentrations of each test compound, ranging from 1 nM to 30 μM. […] All optical densities were measured at 490 nm using a Vmax Kinetic Microplate Reader (Molecular Devices). In most cases, the assay was performed in duplicate and the results were presented as a mean percent inhibition to the negative control±SE. The following formula was used to calculate the percent of inhibition: Inhibition (%)=(1−(ODo/OD))×100.
(§2) The compounds were tested against Z138, MM1S and 3T3 cells. The Z138 cell line is a mature B-cell acute lymphoblastic leukemia cell line derived from a patient with chronic lymphocytic leukemia. The MM1S cell line was established from the peripheral blood of a human multiple myeloma patient. 3T3 cells are standard fibroblast cells; they were originally isolated from Swiss mouse embryo tissue.

Z138 cells = assay: MTT cell proliferation assay, Z138 cells; details: Homo sapiens, Z-138, approximately 64-72 hours, 1 nM to 30 μM
Protocol: as §1, §2

3T3 cells = assay: MTT cell proliferation assay, 3T3 cells; details: Mus musculus, NIH3T3, 3T3 fibroblast cells, approximately 64-72 hours, 1 nM to 30 μM
Protocol: as §1, §2

Row | SMILES | IC50 (MM1S cells) | IC50 (Z138 cells) | IC50 (3T3 cells)
1 | NC(=O)/C(=C/c1ccnc(-c2cc(C(F)(F)F)cc(C(F)(F)F)c2)n1)c1ccc(S(=O)(=O)NC2CC2)cc1 [Compound 128, (E)-3-(2-(3,5-bis(trifluoromethyl)phenyl)pyrimidin-4-yl)-2-(4-(N-cyclopropylsulfamoyl)phenyl)acrylamide] | 5 to 30 µM | 5 to 30 µM | > 30 µM
2 | NC(=O)/C(=C/c1ccnc(-c2cc(C(F)(F)F)cc(C(F)(F)F)c2)n1)c1cncnc1 [Compound 112, (E)-3-(2-(3,5-bis(trifluoromethyl)phenyl)pyrimidin-4-yl)-2-(pyrimidin-5-yl)acrylamide] | 0.1 to 5 µM | 0.1 to 5 µM | > 30 µM
3 | NC(=O)/C(=C/c1ccnc(-c2cc(C(F)(F)F)cc(C(F)(F)F)c2)n1)c1ccc(S(=O)(=O)N2CCOCC2)cc1 [Compound 151, (E)-3-(2-(3,5-bis(trifluoromethyl)phenyl)pyrimidin-4-yl)-2-(4-(morpholinosulfonyl)phenyl)acrylamide] | 0.1 to 5 µM | 5 to 30 µM | > 30 µM
4 | NC(=O)/C(=C\c1cncc(-c2cc(C(F)(F)F)cc(C(F)(F)F)c2)n1)c1cncnc1 [Compound 104, (Z)-3-(6-(3,5-bis(trifluoromethyl)phenyl)pyrazin-2-yl)-2-(pyrimidin-5-yl)acrylamide] | > 30 µM | > 30 µM | > 30 µM
5 | CS(=O)(=O)Nc1cccc(/C(=C\c2ccnc(-c3cc(C(F)(F)F)cc(C(F)(F)F)c3)n2)C(N)=O)c1 [Compound 144, (E)-3-(2-(3,5-bis(trifluoromethyl)phenyl)pyrimidin-4-yl)-2-(3-(methylsulfonamido)phenyl)acrylamide] | > 30 µM | > 30 µM | > 30 µM
6 | NC(=O)/C(=C/c1ccnc(-c2cc(C(F)(F)F)cc(C(F)(F)F)c2)n1)c1ccc(S(=O)(=O)N2CCC(F)(F)CC2)cc1 [Compound 159, (E)-3-(2-(3,5-bis(trifluoromethyl)phenyl)pyrimidin-4-yl)-2-(4-((4,4-difluoropiperidin-1-yl)sulfonyl)phenyl)acrylamide] | 5 to 30 µM | 0.1 to 5 µM | > 30 µM
7 | NC(=O)/C(=C/c1ccnc(-c2cc(C(F)(F)F)cc(C(F)(F)F)c2)n1)c1cccc(S(=O)(=O)N2CCOCC2)c1 [Compound 129, (E)-3-(2-(3,5-bis(trifluoromethyl)phenyl)pyrimidin-4-yl)-2-(3-(morpholinosulfonyl)phenyl)acrylamide] | > 30 µM | > 30 µM | > 30 µM
8 | O=C(O)/C(=C/c1cncc(-c2cc(C(F)(F)F)cc(C(F)(F)F)c2)n1)c1cncnc1 [Compound 117, (E)-3-(6-(3,5-bis(trifluoromethyl)phenyl)pyrazin-2-yl)-2-(pyrimidin-5-yl)acrylic acid] | > 30 µM | > 30 µM | > 30 µM
9 | CS(=O)(=O)c1ccc(/C(=C\c2ccnc(-c3cc(C(F)(F)F)cc(C(F)(F)F)c3)n2)C(N)=O)cc1 [Compound 127, (E)-3-(2-(3,5-bis(trifluoromethyl)phenyl)pyrimidin-4-yl)-2-(4-(methylsulfonyl)phenyl)acrylamide] | > 30 µM | > 30 µM | > 30 µM
10 | NC(=O)/C(=C/c1ccnc(-c2cc(C(F)(F)F)cc(C(F)(F)F)c2)n1)c1cccc(S(=O)(=O)N2CCC(C(F)(F)F)CC2)c1 [Compound 160, (E)-3-(2-(3,5-bis(trifluoromethyl)phenyl)pyrimidin-4-yl)-2-(3-((4-(trifluoromethyl)piperidin-1-yl)sulfonyl)phenyl)acrylamide] | > 30 µM | > 30 µM | > 30 µM
11 | CC1(C)CN(S(=O)(=O)c2cccc(/C(=C\c3ccnc(-c4cc(C(F)(F)F)cc(C(F)(F)F)c4)n3)C(N)=O)c2)CCO1 [Compound 164, (E)-3-(2-(3,5-bis(trifluoromethyl)phenyl)pyrimidin-4-yl)-2-(3-((2,2-dimethylmorpholino)sulfonyl)phenyl)acrylamide] | 0.1 to 5 µM | > 30 µM | > 30 µM
12 | CCOC(=O)C(Br)C(Br)c1ccnc(-c2cc(C(F)(F)F)cc(C(F)(F)F)c2)n1 (stereo not drawn) [Compound 106, ethyl 3-(2-(3,5-bis(trifluoromethyl)phenyl)pyrimidin-4-yl)-2,3-dibromopropanoate] | 0.1 to 5 µM | 0.1 to 5 µM | > 30 µM
13 | O=C(O)/C(=C/c1nccc(-c2cc(C(F)(F)F)cc(C(F)(F)F)c2)n1)c1cncnc1 [Compound 109, (E)-3-(4-(3,5-bis(trifluoromethyl)phenyl)pyrimidin-2-yl)-2-(pyrimidin-5-yl)acrylic acid] | > 30 µM | > 30 µM | > 30 µM
14 | O=C(O)/C(=C/c1ccnc(-c2cc(C(F)(F)F)cc(C(F)(F)F)c2)n1)c1cncnc1 [Compound 111, (E)-3-(2-(3,5-bis(trifluoromethyl)phenyl)pyrimidin-4-yl)-2-(pyrimidin-5-yl)acrylic acid] | 5 to 30 µM | > 30 µM | > 30 µM
15 | NC(=O)/C(=C/c1ccnc(-c2cc(C(F)(F)F)cc(C(F)(F)F)c2)n1)c1cc2ccccc2o1 [Compound 136, (E)-2-(benzofuran-2-yl)-3-(2-(3,5-bis(trifluoromethyl)phenyl)pyrimidin-4-yl)acrylamide] | 0.1 to 5 µM | 0.1 to 5 µM | 5 to 30 µM
16 | NC(=O)/C(=C/c1ccnc(-c2cc(C(F)(F)F)cc(C(F)(F)F)c2)n1)c1ccc(S(=O)(=O)N2CC(F)(F)C2)cc1 [Compound 130, (E)-3-(2-(3,5-bis(trifluoromethyl)phenyl)pyrimidin-4-yl)-2-(4-((3,3-difluoroazetidin-1-yl)sulfonyl)phenyl)acrylamide] | 5 to 30 µM | > 30 µM | > 30 µM
17 | NC(=O)/C(=C/c1ccnc(-c2cc(C(F)(F)F)cc(C(F)(F)F)c2)n1)c1ccncc1 [Compound 148, (E)-3-(2-(3,5-bis(trifluoromethyl)phenyl)pyrimidin-4-yl)-2-(pyridin-4-yl)acrylamide] | 0.1 to 5 µM | 0.1 to 5 µM | > 30 µM
18 | COC(=O)/C(Br)=C\c1nccc(-c2cc(C(F)(F)F)cc(C(F)(F)F)c2)n1 [Compound 108, methyl (E)-3-(4-(3,5-bis(trifluoromethyl)phenyl)pyrimidin-2-yl)-2-bromoacrylate] | 5 to 30 µM | 5 to 30 µM | > 30 µM
19 | NC(=O)/C(=C/c1cncc(-c2cc(C(F)(F)F)cc(C(F)(F)F)c2)n1)c1cncnc1 [Compound 114, (E)-3-(6-(3,5-bis(trifluoromethyl)phenyl)pyrazin-2-yl)-2-(pyrimidin-5-yl)acrylamide] | > 30 µM | > 30 µM | > 30 µM
20 | N#Cc1cncc(/C(=C\c2ccnc(-c3cc(C(F)(F)F)cc(C(F)(F)F)c3)n2)C(N)=O)c1 [Compound 119, (E)-3-(2-(3,5-bis(trifluoromethyl)phenyl)pyrimidin-4-yl)-2-(5-cyanopyridin-3-yl)acrylamide] | 0.1 to 5 µM | 0.1 to 5 µM | > 30 µM
21 | NC(=O)/C(=C/c1nccc(-c2cc(C(F)(F)F)cc(C(F)(F)F)c2)n1)c1cncnc1 [Compound 113, (E)-3-(4-(3,5-bis(trifluoromethyl)phenyl)pyrimidin-2-yl)-2-(pyrimidin-5-yl)acrylamide] | > 30 µM | > 30 µM | > 30 µM
22 | NC(=O)/C(=C/c1ccnc(-c2cc(C(F)(F)F)cc(C(F)(F)F)c2)n1)c1ccsc1Cl [Compound 143, (E)-3-(2-(3,5-bis(trifluoromethyl)phenyl)pyrimidin-4-yl)-2-(2-chlorothiophen-3-yl)acrylamide] | > 30 µM | > 30 µM | > 30 µM
23 | NC(=O)/C(=C/c1ccnc(-c2cc(C(F)(F)F)cc(C(F)(F)F)c2)n1)c1ccc(F)cc1 [Compound 163, (E)-3-(2-(3,5-bis(trifluoromethyl)phenyl)pyrimidin-4-yl)-2-(4-fluorophenyl)acrylamide] | > 30 µM | > 30 µM | > 30 µM
24 | NC(=O)/C(=C/c1ccnc(-c2cc(C(F)(F)F)cc(C(F)(F)F)c2)n1)c1cc(F)nc(F)c1 [Compound 152, (E)-3-(2-(3,5-bis(trifluoromethyl)phenyl)pyrimidin-4-yl)-2-(2,6-difluoropyridin-4-yl)acrylamide] | 0.1 to 5 µM | 0.1 to 5 µM | > 30 µM
25 | NC(=O)/C(=C/c1ccnc(-c2cc(C(F)(F)F)cc(C(F)(F)F)c2)n1)c1ccc(S(=O)(=O)N2CCC(F)(F)C2)cc1 [Compound 157, (E)-3-(2-(3,5-bis(trifluoromethyl)phenyl)pyrimidin-4-yl)-2-(4-((3,3-difluoropyrrolidin-1-yl)sulfonyl)phenyl)acrylamide] | 0.1 to 5 µM | 0.1 to 5 µM | > 30 µM
